The results in this text go back to patent publication US20260248784A1, “BTK Degrader and Use Thereof” (JIANGSU VCARE PHARMATECH CO., LTD., priority 2023, published 2026).

SMILES strings stand for the structures.

This test relates to mino cells. The test is described as follows: Activity test in Mino cells (CCK8 proliferation inhibition). The conditions noted are these: Homo sapiens, 72 h, 3 days, read-out: Cell inhibition IC50. In kind it is cell-based. How it is done:
Cell culture: mino cells (culture conditions: RPMI1640 medium+15% FBS, 37° C., 5% CO2). Cell plating: The cells subcultured into the logarithmic growth phase were collected and transferred into a centrifuge tube, and centrifuged at 800 rpm for 5 min. The cells were resuspended in complete medium and counted. The cells were diluted and adjusted to a final concentration of 200000 cells/mL. The cells were then seeded into a 96-well plate with 100 μL per well. Cell administration: Each group of drug solutions was added into the 96-well plate, 100 μL per well, n=3 for each drug concentration. Meanwhile, negative wells (n=6) and blank wells (n=3) were set up. The 96-well plate was incubated in the incubator for further 3 days. CCK8 reagent was added to the 96-well plate, 20 μL per well, and then the plate was placed in the incubator for further 4 h. The absorbance of the solution was measured at a wavelength of 450 nm using an enzyme reader. The proliferation inhibition rate was calculated and the half inhibitory concentration IC50 value was calculated.
On to `COc1ccc(F)cc1C(=O)NCc1ccc(-c2nc(-c3ccc(N4CC5CC(C4)N5CC4CCN(c5ccc(N6CCC(=O)NC6=O)c(C)c5)CC4)cc3)n3ccnc(N)c23)cc1` [Compound I-53], for which the IC50 was less than 50 nM. The figure for `COc1ccc(F)cc1C(=O)NCc1ccc(-c2nn(-c3ccc(C4CCN(CC5CCN(c6ccc(N7CCC(=O)NC7=O)cc6)CC5)CC4)cc3)c3ncnc(N)c23)cc1` [Compound I-6, N-(4-(4-amino-1-(4-(1-((1-(4-(2,4-dioxotetrahydropyrimidin-1(2H)-yl)phenyl)piperidin-4-yl)methyl)piperidinyl)phenyl)-1H-pyrazolo[3,4-d]pyrimidin-3-yl)benzyl)-5-fluoro-2-methoxybenzamide] is 16 nM; for `COc1ccc(F)cc1C(=O)NCc1ccc(-c2nn(-c3ccc(N4CCC(CN5CCN(c6ccc(N7CCC(=O)NC7=O)c(C)c6)CC5)CC4)cc3)c3ncnc(N)c23)cc1` [Compound I-42] it is less than 25 nM. The figure for `COc1ccc(F)cc1C(=O)NCc1ccc(-c2nn(-c3ccc(N4CCN(CC5CCN(c6ccc7c(c6)CN(C6CCC(=O)NC6=O)C7=O)CC5)CC4)nc3)c3ncnc(N)c23)cc1` (stereo not drawn) [II-1] is 4 nM; for `COc1ccc(F)cc1C(=O)NCc1ccc(-c2nn(-c3ccc(N4CCC(CN5CCN(c6ccc7c(c6)C(=O)N(C6CCC(=O)NC6=O)C7)CC5)CC4)nc3)c3ncnc(N)c23)cc1` (stereo not drawn) [II-4, N-(4-(4-amino-1-(6-(4-((4-(2-(2,6-dioxopiperidin-3-yl)-3-oxoisoindolin-5-yl)piperazin-1-yl)methyl)piperidin-1-yl)pyridin-3-yl)-1H-pyrazolo[3,4-d]pyrimidin-3-yl)benzyl)-5-fluoro-2-methoxybenzamide] it is 12 nM. The result for `COc1ccc(F)cc1C(=O)NCc1ccc(-c2nn(-c3ccc(N4CCN(CC5CCN(c6ccc7c(c6)C(=O)N(C6CCC(=O)NC6=O)C7)CC5)CC4)cc3)c(N)c2C(N)=O)cc1` (stereo not drawn) [II-10] reads less than 25 nM. Take `COc1ccc(F)cc1C(=O)NCc1ccc(-c2nn(-c3ccc(C4CCN(CC5CCN(c6ccc(N7CCC(=O)NC7=O)c(C)c6)CC5)CC4)cc3)c(N)c2C(N)=O)cc1` [Compound I-11, 5-amino-1-(4-(1-(1-(4-(2,4-dioxotetrahydropyrimidin-1(2H)-yl)-3-methylphenyl)piperidin-4-yl)methyl)piperidin-4-yl)phenyl)-3-(4-(((5-fluoro-2-methoxybenzamido)methyl)phenyl)-1H-pyrazole-4-carboxamide]: the IC50 is less than 25 nM. The figure for `COc1ccc(F)cc1C(=O)NCc1ccc(-c2nn(-c3ccc(C4CCN(CC5CCN(c6ccc7c(c6)C(=O)N(C6CCC(=O)NC6=O)C7=O)CC5)CC4)nc3)c3ncnc(N)c23)cc1` (stereo not drawn) [II-7, N-(4-(4-amino-1-(6-(1-((1-(2-(2,6-dioxopiperidin-3-yl)-1,3-dioxoisoindolin-5-yl)piperidin-4-yl)methyl)piperidin-4-yl)pyridin-3-yl)-1H-pyrazolo[3,4-d]pyrimidin-3-yl)benzyl)-5-fluoro-2-methoxybenzamide] is 18 nM. The figure for `COc1ccc(F)cc1C(=O)NCc1ccc(-n2c(=O)n(-c3ccc(N4CCN(CC5CCN(c6ccc(N7CCC(=O)NC7=O)c(C)c6)CC5)CC4)nc3)c3ccnc(N)c32)cc1` [Compound I-52, N-(4-(4-amino-1-(6-(4-((1-(4-(2,4-dioxotetrahydropyrimidin-1(2H)-yl)-3-methylphenyl)piperidin-4-yl)methyl)piperazin-1-yl)pyridin-3-yl)-2-oxo-1,2-dihydro-3H-imidazo[4,5-c]pyridin-3-yl)benzyl)-5-fluoro-2-methoxybenzamide] is less than 50 nM; for `COc1ccc(F)cc1C(=O)NCc1ccc(-n2c(=O)n(-c3ccc(N4CCN(CC5CCN(c6ccc(N7CCC(=O)NC7=O)c(C)c6)CC5)CC4)cc3)c3ccnc(N)c32)cc1` [Compound I-48] it is less than 25 nM; for `COc1ccc(F)cc1C(=O)NCc1ccc(-c2nc(-c3ccc(N4CCN(CC5CCN(c6ccc(N7CCC(=O)NC7=O)c(C)c6)CC5)CC4)c(OC)c3)n3ccnc(N)c23)cc1` [Compound I-51] it is less than 25 nM. The result for `COc1ccc(F)cc1C(=O)NCc1ccc(-c2nn(-c3ccc(N4CCN(CC5CCN(c6ccc(N7CCC(=O)NC7=O)c(C)c6)CC5)CC4)cc3)c3ccnc(N)c23)cc1` [Compound I-46] reads less than 100 nM; that for `COc1ccc(F)cc1C(=O)NCc1ccc(-c2nc(-c3ccc(C4=CCN(CC5CCN(c6ccc(N7CCC(=O)NC7=O)c(C)c6)CC5)CC4)cc3)n3ccnc(N)c23)cc1` [Compound I-50], less than 25 nM; that for `Cc1cc(N2CCN(C[C@@H]3CCCC[C@H]3CN3CCN(c4ccc(-n5nc(-c6ccc(Oc7ccccc7)cc6)c6c(N)ncnc65)cn4)CC3)CC2)ccc1N1CCC(=O)NC1=O` [III-20, 1-(4-(4-(((1R,2R)-2-((4-(5-(4-amino-3-(4-phenoxyphenyl)-1H-pyrazolo[3,4-d]pyrimidin-1-yl)pyridin-2-yl)piperazin-1-yl)methyl)cyclohexyl)methyl)piperazin-1-yl)-2-methylphenyl)dihydropyrimidine-2,4(1H,3H)-dione], less than 500 nM.

With `COc1ccc(F)cc1C(=O)NCc1ccc(-c2nn(-c3ccc(C4CCN(CC5CCN(c6ccc(N7CCC(=O)NC7=O)c(C)c6)CC5)CC4)nc3)c(N)c2C(N)=O)cc1` [Compound I-12], the IC50 is less than 25 nM. The figure for `COc1ccc(F)cc1C(=O)NCc1ccc(-c2nn(-c3ccc(C4CCN(CC5CCN(c6ccc(N7CCC(=O)NC7=O)c(C)c6)CC5)CC4)nc3)c3ncnc(N)c23)cc1` [Compound I-7, N-(4-(4-amino-1-(6-(1-((1-(4-(2,4-dioxotetrahydropyrimidin-1(2H)-yl)-3-methylphenyl)piperidin-4-yl)methyl)piperidin-4-yl)pyridin-3-yl)-1H-pyrazolo[3,4-d]pyrimidin-3-yl)benzyl)-5-fluoro-2-methoxybenzamide] is less than 50 nM. As to `COc1ccc(F)cc1C(=O)NCc1ccc(-c2nn(-c3ccc(N4CCN(CC5CCN(c6ccc(N7CCC(=O)NC7=O)c(C)c6)CC5)CC4)nc3)c3ncnc(N)c23)c(F)c1F` [Compound I-43], the IC50 is less than 50 nM. The result for `COc1ccc(F)cc1C(=O)NCc1ccc(-c2nc(-c3ccc(N4CCN(CC5CCN(c6ccc(N7CCC(=O)NC7=O)c(C)c6)CC5)CC4)nc3)n3ccnc(N)c23)cc1` [Compound I-30] reads less than 50 nM; that for `COc1ccc(F)cc1C(=O)NCc1ccc(-c2nn(-c3ccc(N4CCN(CC5CCN(c6ccc7c(c6)C(=O)N(C6CCC(=O)NC6=O)C7=O)CC5)CC4)nc3)c3ncnc(N)c23)cc1` (stereo not drawn) [II-3, N-(4-4-amino-1-(6-(4-(1-(2,6-dioxopiperidin-3-yl)-1,3-dioxoisoindolin-5-ylpiperidin-4-yl)methylpiperazin-1-ylpyridin-3-yl)-1H-pyrazolo[3,4-d]pyrimidin-3-yl)benzyl)-5-fluoro-2-methoxybenzamide], 17 nM; that for `COc1ccc(F)cc1C(=O)NCc1ccc(-c2nn(-c3ccc(N4CCN(CC5CCN(c6ccc7c(c6)C(=O)N(C6CCC(=O)NC6=O)C7)CC5)CC4)nc3)c(N)c2C(N)=O)cc1` (stereo not drawn) [II-34, 5-amino-1-(6-(4-((1-(2-(2,6-dioxopiperidin-3-yl)-3-oxoisoindolin-5-yl)piperidin-4-yl)methyl)piperazin-1-yl)pyridin-3-yl)-4-(((5-fluoro-2-methoxybenzamido)methyl)phenyl)-1H-pyrazole-4-carboxamide], less than 25 nM. The result for `COc1ccc(F)cc1C(=O)NCc1ccc(-c2nn(-c3ccc(C4CCN(CC5CCN(c6ccc7c(c6)C(=O)N(C6CCC(=O)NC6=O)C7)CC5)CC4)cc3)c(N)c2C(N)=O)cc1` (stereo not drawn) [II-39] reads less than 25 nM; that for `COc1ccc(F)cc1C(=O)NCc1ccc(-c2nn(-c3ccc(N4CCN(CC5CCN(c6ccc(N7CCC(=O)NC7=O)c(C)c6)CC5)CC4)cc3)c3ncnc(N)c23)cc1` [Compound I-9], less than 25 nM; that for `COc1ccc(F)cc1C(=O)NCc1ccc(-c2nn(-c3ccc(N4CCN(CC5CCN(c6ccc(N7CCC(=O)NC7=O)c(C)c6)CC5)CC4)cc3)c(N)c2C(N)=O)cc1` [Compound I-8], less than 25 nM. The figure for `COc1ccc(F)cc1C(=O)NCc1ccc(-c2nc(-c3ccc(N4CCN(CC5CCN(c6ccc(N7CCC(=O)NC7=O)c(C)c6)CC5)CC4)cc3)n3ccnc(N)c23)cc1F` [Compound I-45] is less than 50 nM; for `COc1ccc(F)cc1C(=O)NCc1ccc(-c2nn(-c3ccc(N4CCN(CC5CCN(c6ccc7c(c6)CN(C6CCC(=O)NC6=O)C7=O)CC5)C[C@@H]4C)nc3)c3ncnc(N)c23)cc1` (stereo partly drawn) [II-38, N-(4-(4-amino-1-(6-((2S)-4-((1-(2-(2,6-dioxopiperidin-3-yl)-1-oxoisoindol-5-yl)piperidin-4-yl)methyl)-2-methylpiperazin-1-yl)pyridin-3-yl)-1H-pyrazolo[3,4-d]pyrimidin-3-yl)benzyl)-5-fluoro-2-methoxybenzamide] it is less than 25 nM; for `COc1ccc(F)cc1C(=O)NCc1ccc(-c2nn(-c3ccc(C4CCN(CC5CCN(c6ccc(C7CCC(=O)NC7=O)cc6)CC5)CC4)nc3)c3ncnc(N)c23)cc1` (stereo not drawn) [Compound I-24] it is less than 100 nM. Regarding `COc1ccc(F)cc1C(=O)NCc1ccc(-c2nn(-c3ccc(N4CCN(CC5CCN(c6ccc7c(c6)CN(C6CCC(=O)NC6=O)C7=O)CC5)CC4)nc3)c3ncnc(N)c23)cc1F` (stereo not drawn) [II-5, N-(4-(4-amino-1-(6-(4-((1-(2-(2,6-dioxopiperidin-3-yl)-1-oxoisoindolin-5-yl)piperidin-4-yl)methyl)piperazin-1-yl)pyridin-3-yl)-1H-pyrazolo[3,4-d]pyrimidin-3-yl)-2-fluorobenzyl)-5-fluoro-2-methoxybenzamide], the IC50 was 9 nM.
